In patent US9051273B2, “Phosphodiesterase 4 inhibitor capable of avoiding vomiting” (priority 2012, dated 2015):

Assays:
PDE4D4 = PDE4D4 (Homo sapiens, UniProt Q08499); assay: Phosphodiesterase 4 inhibitory activity test (IMAP fluorescence polarization), PDE4D4; assay type: biochemical; conditions: Table 1
Source text: (§1) Phosphodiesterase 4 inhibitory activity test utilizes IMAP technology, which is called immobilized metal ion affinity-based fluorescence polarization and provide a stable and accurate approach for determining the inhibitory potential of compounds.

PDE4D5 = PDE4D5 (Homo sapiens, UniProt Q08499); assay: Phosphodiesterase 4 inhibitory activity test (IMAP fluorescence polarization), PDE4D5; assay type: biochemical; conditions: Table 1
Source text: as §1

beagle dogs = assay: Potential vomiting effects (emesis) in beagle dogs; assay type: in vivo; conditions: observation 120 minutes
Experimental: 2. Preliminary assessing the potential vomiting effects of new PDE4 inhibitor III-3
The potential vomiting observation time is 120 minutes after the oral administration. The latency was determined by the interval time from the oral administration of the drugs to the nausea, retching, a lot of salivation and vomiting of gastric contents. The incidence of emesis was also recorded.

[1] = test system: mice with scopolamine-induced cognitive deficits; assay: Morris water maze, learning and memory with scopolamine-induced cognitive deficits in mice; assay type: in vivo, kunming mice; conditions: administered 1 week, space exploration on fifth day, X ± S
Experimental: 1. The effects of the new PDE4 inhibitor III-3 on the learning and memory with scopolamine-induced cognitive deficits in mice
After being continuously administered with veh or compounds for 1 week, the behavioral tests are determined by Morris water maze. 20 minutes before test, saline is given into the blank control mice through intraperitoneal injection, while scopolamine is intraperitoneally injected to the other five groups. These mice are continuously trained for 4 days, and the space exploration experiment is performed on the fifth day for recording the latency to target quadrant, the number of crossing and retention time in the target quadrant during the test period of each mice.

[2] = scopolamine + Rolipram 0.5 mg/kg

PDE4D5, sequence (Q08499 1-745 isoform Q08499-6): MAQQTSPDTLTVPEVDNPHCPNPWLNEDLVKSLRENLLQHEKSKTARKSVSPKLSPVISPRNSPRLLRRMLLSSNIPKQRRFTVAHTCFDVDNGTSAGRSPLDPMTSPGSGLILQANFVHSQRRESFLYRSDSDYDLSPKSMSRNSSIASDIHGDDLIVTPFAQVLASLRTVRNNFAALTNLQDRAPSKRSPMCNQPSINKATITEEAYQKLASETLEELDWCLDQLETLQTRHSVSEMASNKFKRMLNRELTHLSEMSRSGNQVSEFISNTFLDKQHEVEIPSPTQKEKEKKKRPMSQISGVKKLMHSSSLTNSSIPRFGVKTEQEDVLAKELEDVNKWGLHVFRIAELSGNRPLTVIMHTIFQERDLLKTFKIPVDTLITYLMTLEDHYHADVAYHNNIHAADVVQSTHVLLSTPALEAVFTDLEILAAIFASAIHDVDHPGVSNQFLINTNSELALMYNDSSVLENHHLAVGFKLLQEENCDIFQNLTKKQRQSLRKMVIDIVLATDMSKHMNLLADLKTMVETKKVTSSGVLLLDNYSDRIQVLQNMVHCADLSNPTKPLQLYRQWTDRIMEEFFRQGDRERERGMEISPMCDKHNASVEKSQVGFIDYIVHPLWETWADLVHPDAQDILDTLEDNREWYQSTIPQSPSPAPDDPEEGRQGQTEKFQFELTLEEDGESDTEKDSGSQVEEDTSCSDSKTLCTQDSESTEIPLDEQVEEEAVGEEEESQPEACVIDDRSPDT
PDE4D4, sequence (Q08499 whole entry): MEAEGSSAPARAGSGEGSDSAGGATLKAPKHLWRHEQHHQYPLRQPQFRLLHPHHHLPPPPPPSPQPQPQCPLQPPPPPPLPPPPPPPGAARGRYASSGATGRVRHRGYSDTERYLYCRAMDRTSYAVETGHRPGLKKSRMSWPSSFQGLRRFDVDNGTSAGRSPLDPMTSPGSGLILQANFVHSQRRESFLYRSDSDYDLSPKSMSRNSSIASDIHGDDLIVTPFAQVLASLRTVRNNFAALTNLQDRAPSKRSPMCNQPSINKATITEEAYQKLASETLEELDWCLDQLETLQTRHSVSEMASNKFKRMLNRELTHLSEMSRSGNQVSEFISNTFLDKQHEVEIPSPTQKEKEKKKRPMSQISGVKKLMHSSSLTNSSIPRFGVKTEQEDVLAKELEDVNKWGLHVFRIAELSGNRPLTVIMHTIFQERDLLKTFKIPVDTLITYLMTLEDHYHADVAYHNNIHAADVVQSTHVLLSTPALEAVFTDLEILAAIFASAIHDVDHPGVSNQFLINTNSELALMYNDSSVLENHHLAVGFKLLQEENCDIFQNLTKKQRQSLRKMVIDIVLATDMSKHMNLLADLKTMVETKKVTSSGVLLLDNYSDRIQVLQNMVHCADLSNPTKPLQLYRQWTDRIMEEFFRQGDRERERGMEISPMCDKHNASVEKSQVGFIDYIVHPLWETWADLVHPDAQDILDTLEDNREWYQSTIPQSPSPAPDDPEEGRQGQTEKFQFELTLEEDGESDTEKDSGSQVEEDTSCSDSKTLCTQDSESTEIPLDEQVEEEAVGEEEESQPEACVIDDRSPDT

## COc1ccc(CN2CCN(c3ccccc3OC)CC2)cc1-c1cccc(Cl)c1 [II-1]
PDE4D4
  IC50: 115 µM
PDE4D5
  IC50: 83.7 µM

## COc1ccc(CN2CCN(c3ccccc3Cl)CC2)cc1-c1cccc(Cl)c1 [II-2]
PDE4D4
  IC50: 141 µM
PDE4D5
  IC50: 50.9 µM

## COc1ccc(Cn2ncc(Cl)c(Cl)c2=O)cc1-c1cccc(Cl)c1 [III-1]
PDE4D4
  IC50: 22.4 µM
PDE4D5
  IC50: 8.32 µM

## COc1ccc(Cn2nc(N3CCN(c4ccccc4Cl)CC3)ccc2=O)cc1-c1cccc(Cl)c1 [III-2]
PDE4D4
  IC50: 137 µM
PDE4D5
  IC50: 110 µM

## COc1ccccc1OCCNc1ccc(=O)n(Cc2ccc(OC)c(-c3cccc(Cl)c3)c2)n1 [III-3]
Beagle dogs; 1.0 mg/kg oral
  Incidence of emesis: 0/3
  Latency period (min) of emesis: >120 min
[1]; scopolamine + III-3 0.2 mg/kg
  Latency to target quadrant (t/s): 9.96 ± 2.32 s
  Retention time in target quadrant time (t/s): 42.78 ± 4.56 s
  The number of crossing target quadrant: 6.67 ± 1.29
PDE4D4
  IC50: 7.82 µM
PDE4D5
  IC50: 8.48 µM

## COc1ccc(C2CNC(=O)C2)cc1OC1CCCC1 (centres unmarked) [Rolipram, reference compound]
Beagle dogs; 0.5 mg/kg oral gavage
  Incidence of emesis: 6/6
  Latency period (min) of emesis: 10.67 ± 2.68 min
[1]; [2]
  Latency to target quadrant (t/s): 16.09 ± 3.29 s
  Retention time in target quadrant time (t/s): 38.34 ± 3.65 s
  The number of crossing target quadrant: 6.89 ± 0.59
